IC50, EC50 and AC50 data for 43 molecules are collected here from ChEMBL document CHEMBL1201862, “PubChem BioAssay data set” (2004).

Some targets named below: Cytochrome P450 2D6 (Homo sapiens, UniProt P10635); Cytochrome P450 3A4 (Homo sapiens, UniProt P08684); Cytochrome P450 2C9 (Homo sapiens, UniProt P11712).
For assay [1], the target named is T1, Rac GTPase-activating protein 1 (Homo sapiens, UniProt Q9H0H5).
T1 sequence (Q9H0H5 whole entry): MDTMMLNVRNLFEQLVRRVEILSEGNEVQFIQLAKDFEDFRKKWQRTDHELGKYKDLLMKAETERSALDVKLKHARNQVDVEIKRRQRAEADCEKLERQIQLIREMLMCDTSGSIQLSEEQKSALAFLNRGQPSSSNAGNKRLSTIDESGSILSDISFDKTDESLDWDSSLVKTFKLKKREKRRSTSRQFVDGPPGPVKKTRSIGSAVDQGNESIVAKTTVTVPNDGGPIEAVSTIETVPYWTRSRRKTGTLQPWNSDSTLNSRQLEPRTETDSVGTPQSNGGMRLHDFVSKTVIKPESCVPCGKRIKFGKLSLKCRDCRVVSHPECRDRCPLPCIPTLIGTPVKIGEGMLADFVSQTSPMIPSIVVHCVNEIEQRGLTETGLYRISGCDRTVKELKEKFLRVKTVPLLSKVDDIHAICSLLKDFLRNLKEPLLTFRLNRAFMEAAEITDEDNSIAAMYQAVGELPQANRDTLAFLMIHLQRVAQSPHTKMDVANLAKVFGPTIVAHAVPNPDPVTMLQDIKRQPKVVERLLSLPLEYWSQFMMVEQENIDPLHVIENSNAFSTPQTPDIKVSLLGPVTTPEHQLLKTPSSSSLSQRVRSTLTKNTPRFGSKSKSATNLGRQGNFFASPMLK
Briefly: MgcRacGAP GTPase-activating activity inhibitors, confirmation, biochemical, ADP Hunter fluorescence, primary and confirmatory (AID 624330). The format is functional.

The target in assay [2] is T2, Corticotropin-releasing factor receptor 2/Corticotropin-releasing factor-binding protein (Homo sapiens, UniProt P24387+Q13324).
T2 sequence (Q13324 whole entry): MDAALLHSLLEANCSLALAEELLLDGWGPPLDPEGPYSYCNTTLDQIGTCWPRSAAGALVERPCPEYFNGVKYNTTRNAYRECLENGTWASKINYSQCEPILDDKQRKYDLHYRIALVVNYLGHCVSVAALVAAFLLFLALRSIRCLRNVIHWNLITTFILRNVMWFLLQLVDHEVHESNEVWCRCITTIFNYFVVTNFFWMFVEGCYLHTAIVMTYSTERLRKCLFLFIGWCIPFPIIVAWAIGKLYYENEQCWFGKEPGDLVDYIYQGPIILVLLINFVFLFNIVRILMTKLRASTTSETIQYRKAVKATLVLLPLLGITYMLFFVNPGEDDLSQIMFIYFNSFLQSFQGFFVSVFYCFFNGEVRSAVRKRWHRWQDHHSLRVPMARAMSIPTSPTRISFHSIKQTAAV
T2 sequence (P24387 whole entry): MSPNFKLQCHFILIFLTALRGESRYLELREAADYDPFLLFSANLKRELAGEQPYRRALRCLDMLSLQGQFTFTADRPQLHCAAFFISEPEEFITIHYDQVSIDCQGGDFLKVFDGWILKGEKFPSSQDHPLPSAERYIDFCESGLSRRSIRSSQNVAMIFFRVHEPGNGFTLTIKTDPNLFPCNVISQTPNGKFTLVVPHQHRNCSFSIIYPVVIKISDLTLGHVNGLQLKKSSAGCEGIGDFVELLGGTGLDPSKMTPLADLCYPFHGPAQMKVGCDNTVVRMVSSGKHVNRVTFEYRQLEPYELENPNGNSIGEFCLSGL
Put plainly: activators of CRF receptor 2 with binding protein – uHTS hits, confirmation (AID 602473). The format is functional. The conditions noted are these: read-out: EC50_Mean.

A further assay has as its target T3, Cytochrome P450 1A2 (Homo sapiens, UniProt P05177).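 Also: PubChem cytochrome P450 panel assay, CYP1A2 panel member.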
T3 sequence (P05177 whole entry): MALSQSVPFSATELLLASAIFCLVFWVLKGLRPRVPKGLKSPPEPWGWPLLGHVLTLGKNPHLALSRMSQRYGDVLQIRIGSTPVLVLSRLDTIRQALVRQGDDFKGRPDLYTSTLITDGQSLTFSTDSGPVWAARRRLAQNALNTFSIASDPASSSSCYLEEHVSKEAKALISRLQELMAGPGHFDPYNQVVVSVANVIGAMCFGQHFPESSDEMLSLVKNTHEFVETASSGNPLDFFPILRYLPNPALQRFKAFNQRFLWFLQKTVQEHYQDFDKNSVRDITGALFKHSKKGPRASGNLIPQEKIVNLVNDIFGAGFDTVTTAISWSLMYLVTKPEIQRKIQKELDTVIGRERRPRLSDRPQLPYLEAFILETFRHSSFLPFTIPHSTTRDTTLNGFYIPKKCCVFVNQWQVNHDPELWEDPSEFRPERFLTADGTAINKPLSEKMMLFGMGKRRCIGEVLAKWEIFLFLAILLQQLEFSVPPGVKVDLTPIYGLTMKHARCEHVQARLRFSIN

The next assay has as its target Cytochrome P450 2C19 (Homo sapiens, UniProt P33261). Briefly: Cytochrome panel assay with activity outcomes. Panel member name: p450-cyp2c19 Compounds with AC50 equal or less than 10 uM are considered active. The format is functional. The settings on record: read-out: AC50.
The subject of assay [3] is Streptococcus sp. 'group A'. Put plainly: growth inhibition of control SK(-) GAS strain, dose response, counter-screen for streptokinase expression inhibitor project, luminescence, kanamycin, BacTiterGlo, confirmation (AID 1900). The class given is functional, organism-based.
Another assay has as its system Streptococcus. Briefly: Group A Streptococcus viability loss, dose response, counter-screen for streptokinase expression inhibitor project, luminescence, BacTiterGlo (AID 1915).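 Also: potency for reduction of bacterial viability or growth.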 The class given is functional, organism-based. For orientation: A counterscreen serves to expose hits that act by an unwanted route or on another target.
Assay [4] in a line: Luminescence Cell-Based Dose Retest to Confirm Inhibitors of Cancer Stem Cells. [Related pubchem assays (depositor defined):AID2717, AID2721]. The class given is functional. The settings on record: Homo sapiens.

The source made the active and inactive calls.

Cytochrome P450 2C19, sequence (P33261 whole entry): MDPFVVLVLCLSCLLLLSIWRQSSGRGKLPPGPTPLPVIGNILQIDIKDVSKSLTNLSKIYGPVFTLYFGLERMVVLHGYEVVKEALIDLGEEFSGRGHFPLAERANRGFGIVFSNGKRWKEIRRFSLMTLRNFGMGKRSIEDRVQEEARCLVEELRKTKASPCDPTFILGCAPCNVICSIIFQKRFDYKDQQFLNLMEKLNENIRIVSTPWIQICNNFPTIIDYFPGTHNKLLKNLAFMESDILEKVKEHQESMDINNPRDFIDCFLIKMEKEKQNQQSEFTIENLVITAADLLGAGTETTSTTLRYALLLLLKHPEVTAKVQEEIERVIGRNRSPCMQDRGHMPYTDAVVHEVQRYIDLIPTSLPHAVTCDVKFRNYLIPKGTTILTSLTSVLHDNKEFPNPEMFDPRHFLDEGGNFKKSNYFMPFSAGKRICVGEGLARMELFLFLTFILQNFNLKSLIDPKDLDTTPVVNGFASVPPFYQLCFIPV
Cytochrome P450 3A4, sequence (P08684 whole entry): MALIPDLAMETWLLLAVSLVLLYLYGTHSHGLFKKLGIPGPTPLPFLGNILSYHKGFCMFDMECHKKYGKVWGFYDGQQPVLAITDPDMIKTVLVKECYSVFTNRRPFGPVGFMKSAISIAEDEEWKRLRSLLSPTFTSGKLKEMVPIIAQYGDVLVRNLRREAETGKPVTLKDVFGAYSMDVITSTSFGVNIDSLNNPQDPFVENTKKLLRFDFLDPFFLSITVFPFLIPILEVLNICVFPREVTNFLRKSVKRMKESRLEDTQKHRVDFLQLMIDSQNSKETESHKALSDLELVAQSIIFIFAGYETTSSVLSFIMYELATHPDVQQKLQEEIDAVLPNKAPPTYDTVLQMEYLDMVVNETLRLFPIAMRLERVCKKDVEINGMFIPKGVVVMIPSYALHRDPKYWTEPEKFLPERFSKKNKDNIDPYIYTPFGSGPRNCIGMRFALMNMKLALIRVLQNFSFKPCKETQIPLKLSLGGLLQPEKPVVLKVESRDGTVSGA
Cytochrome P450 2D6, sequence (P10635 whole entry): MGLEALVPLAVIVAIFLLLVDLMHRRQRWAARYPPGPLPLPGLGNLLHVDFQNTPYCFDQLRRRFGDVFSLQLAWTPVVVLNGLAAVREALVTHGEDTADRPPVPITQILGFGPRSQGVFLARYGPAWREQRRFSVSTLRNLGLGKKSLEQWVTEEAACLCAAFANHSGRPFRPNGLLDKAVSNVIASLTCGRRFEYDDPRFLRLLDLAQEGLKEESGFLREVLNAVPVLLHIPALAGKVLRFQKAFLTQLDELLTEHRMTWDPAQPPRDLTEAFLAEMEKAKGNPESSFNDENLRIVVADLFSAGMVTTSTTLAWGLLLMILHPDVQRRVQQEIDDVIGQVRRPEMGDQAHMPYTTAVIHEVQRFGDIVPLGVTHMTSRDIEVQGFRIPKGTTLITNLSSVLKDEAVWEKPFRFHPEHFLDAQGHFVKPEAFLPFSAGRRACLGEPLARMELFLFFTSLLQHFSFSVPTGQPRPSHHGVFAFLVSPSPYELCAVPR
Cytochrome P450 2C9, sequence (P11712 whole entry): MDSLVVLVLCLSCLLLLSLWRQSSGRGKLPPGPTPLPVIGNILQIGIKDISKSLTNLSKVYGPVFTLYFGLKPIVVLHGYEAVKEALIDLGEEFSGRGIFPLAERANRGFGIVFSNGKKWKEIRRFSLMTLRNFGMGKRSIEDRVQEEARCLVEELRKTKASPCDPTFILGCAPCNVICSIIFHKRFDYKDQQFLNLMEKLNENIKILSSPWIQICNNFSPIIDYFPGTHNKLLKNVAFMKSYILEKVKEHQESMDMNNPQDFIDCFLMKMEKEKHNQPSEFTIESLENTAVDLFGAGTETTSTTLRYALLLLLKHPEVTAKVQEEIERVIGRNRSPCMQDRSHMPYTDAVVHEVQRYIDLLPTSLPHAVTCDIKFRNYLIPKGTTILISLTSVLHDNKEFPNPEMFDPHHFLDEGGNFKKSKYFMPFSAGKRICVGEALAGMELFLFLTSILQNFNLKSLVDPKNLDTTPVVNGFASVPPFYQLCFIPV

Usually IC50 stands for the point on the concentration scale where inhibition reaches its midpoint. Regarding `COc1ccc(/C=N/NC(=O)c2cnccn2)cc1O`, the IC50 in assay [1] is 85.6 µM (active).
Take `COC(=O)c1[nH]c2ccc(Cl)cc2c1NC(=O)Oc1ccccc1`: the IC50 in [1] is 19.8 µM (active).
`CCCc1nnc(NC(=O)Cn2c(=O)oc3cc(Br)ccc32)s1`: the EC50 in assay [2] was 9.87 µM (active).
Consider `COc1cc(/C=C/C(=O)OCC(=O)NC2CCS(=O)(=O)C2)ccc1O` (configuration not stated), for which, in [1], the IC50 is 47.1 µM (active).
In general, AC50 refers to the midpoint of the concentration-response curve, whichever way the signal moves. Turning to `CC(Oc1ccc(Cl)cc1Cl)C(=O)/C=C/N(C)C` (configuration not stated), the AC50 on Cytochrome P450 2D6 is 14.1 µM (inconclusive); at Cytochrome P450 3A4 it was 25.1 µM (inconclusive); at Cytochrome P450 2C9, 12.6 µM (inconclusive).
For the molecule `O=C(CSc1ccc(C(F)(F)F)cc1[N+](=O)[O-])Nc1ccccc1`, the AC50 is 1.26 µM (inconclusive) on Cytochrome P450 1A2 and 15.8 µM (inconclusive) at Cytochrome P450 3A4.
For the molecule `O=C(NCCC1=CCCCC1)C1CCCN(c2nc3ccccc3o2)C1` (configuration not stated), the AC50 on Cytochrome P450 2D6 was 14.1 µM (inconclusive); at Cytochrome P450 1A2, 15.8 µM (inconclusive).
With `Cc1cccc(CNc2ccnc(-c3ccccc3Cl)n2)c1`, the AC50 on Cytochrome P450 2C9 was 0.794 µM (inconclusive).
Take `CN1/C(=C/C=C(/C#N)C(N)=O)C(C)(C)c2ccccc21`: the concentration at half-maximal activity (AC50) is 22.4 µM (inconclusive) on Cytochrome P450 3A4 and 28.2 µM (inconclusive) on Cytochrome P450 2C9.
With `Cc1ccc(CNC(=O)C2(NC(=O)Nc3ccc(C)cc3)CCCCC2)cc1`, the AC50 is 1.78 µM (inconclusive) at Cytochrome P450 2C19 and 3.55 µM (inconclusive) at Cytochrome P450 2C9.
For `Cc1ccc(OCC(=O)NNC(=O)C2CCN(c3ncccn3)CC2)cc1`, the figures for the AC50 at Cytochrome P450 2C19, on Cytochrome P450 3A4 and on Cytochrome P450 2C9 were 0.501 µM (inconclusive), 20 µM (inconclusive) and 14.1 µM (inconclusive), respectively.
Regarding `COc1ccc(-c2sc3ccc(OC)cc3c2C#CCCO)cc1`, the figures for the EC50 (in assay [3]; in the assay on Streptococcus) were 7.3 µM (active) and 9.32 µM (active), respectively. For the same molecule, the AC50 in assay [4] is 2.88 µM (active).
With `CN(Cc1ccccc1)Cc1c(O)ccc2ccccc12`, the IC50 in assay [1] was 89.3 µM (active).
Still for that read-out and setting: the result for `COc1ccc(CN2CCCC(C(=O)N3CCCC3)C2)cc1` (configuration not stated) reads 109 µM (active).
For `O=C(NCc1ccco1)c1cc(C(=O)C2CCCCC2)c[nH]1`, the AC50 on Cytochrome P450 2C19 is 14.1 µM (inconclusive); at Cytochrome P450 2C9 it was 8.91 µM (inconclusive).
Take `COc1ccccc1NS(=O)(=O)c1cc(C(=O)NCCC(C)C)ccc1F`: the EC50 in assay [2] is 8.2 µM (active).
Turning to `C/C(CCN1CCc2nc(-c3ccccc3)c(-c3ccccc3)cc2C1)=N\O[C@@H](C)c1cc(-c2c(C)cc(C)cc2C)no1`, the figures for the AC50 at Cytochrome P450 2C19, on Cytochrome P450 3A4 and at Cytochrome P450 2C9 were 0.00631 µM (inconclusive), 3.98 µM (inconclusive) and 0.316 µM (inconclusive), respectively.
As to `COc1ccc(-n2c(=O)c(-c3cc(F)cc(F)c3)nc3cnc(N4CCNCC4)nc32)cc1`, the AC50 on Cytochrome P450 1A2 is 12.6 µM (inconclusive); at Cytochrome P450 3A4, 25.1 µM (inconclusive).
Turning to `COC(=O)c1ccc(C(=O)OCCCc2nc3cc(N)ccc3[nH]2)cc1`, the IC50 in [1] is 110 µM (active).
Take `CN1CCc2nc3sc(C(=O)NC(C)(C)C)c(N)c3cc2C1`: the AC50 was 31.6 µM (inconclusive) at Cytochrome P450 2C19 and 14.1 µM (inconclusive) at Cytochrome P450 1A2.
With `CN(C)S(=O)(=O)c1ccc(C(=O)Nc2ccc(CN3CCCC3)cc2)cc1`, at Cytochrome P450 2C9, the AC50 is 1.78 µM (inconclusive).
Consider `CCc1cc(-c2n[nH]cc2-c2nc3ccccc3n2C)c(O)cc1O`, for which the IC50 in [1] was 83.6 µM (active).
Regarding `CCNc1ncc2nc(-c3cc(F)cc(F)c3)c(=O)n(C[C@H]3CCCO3)c2n1`, the concentration at half-maximal activity (AC50) at Cytochrome P450 1A2 is 3.16 µM (inconclusive); at Cytochrome P450 3A4, 15.8 µM (inconclusive).
With `CCOc1cc(N2CCOCC2)c(OCC)cc1NC(=O)c1ccc(C)s1`, in [1], the IC50 was 70.8 µM (active).
As to `Cc1nn(C(C)C(=O)Nc2sc3c(c2C#N)CCCC3)c(C)c1[N+](=O)[O-]` (configuration not stated), the AC50 at Cytochrome P450 2C9 was 3.98 µM (inconclusive).
Take `COc1ccc2[nH]cc(CCNc3ccnc(-c4c(C)noc4C)n3)c2c1`: the AC50 on Cytochrome P450 2D6 is 12.6 µM (inconclusive); on Cytochrome P450 2C9, 0.794 µM (inconclusive).
As for `C#CCN1C(C)=C(C(=O)OC)[C@@H](c2cccc([N+](=O)[O-])c2)C(C(=O)OCC)=C1C`, the AC50 is 15.8 µM (inconclusive) at Cytochrome P450 2D6 and 12.6 µM (inconclusive) at Cytochrome P450 1A2.
As to `Cc1ccc(Cn2cnc3c(nnn3Cc3ccc(Cl)cc3)c2=O)cc1`, the AC50 on Cytochrome P450 2C19 is 4.47 µM (inconclusive); at Cytochrome P450 1A2 it was 25.1 µM (inconclusive).
Turning to `Cc1ccnc(Nc2nc(-c3ccc(O)cc3)cs2)c1`, the IC50 in assay [1] was 105 µM (active).
For `O=c1c(CCc2ccccc2)nc2cncnc2n1C1CC1`, the AC50 at Cytochrome P450 2C19 was 39.8 µM (inconclusive); at Cytochrome P450 2D6 it was 15.8 µM (inconclusive); at Cytochrome P450 3A4, 10 µM (inconclusive); on Cytochrome P450 2C9, 25.1 µM (inconclusive).
As to `CC(C)NC(=O)N1CCN(c2ccncc2S(=O)(=O)N2CCOCC2)CC1`, the values for the AC50 at Cytochrome P450 2C19 and at Cytochrome P450 2C9 were 39.8 µM (inconclusive) and 35.5 µM (inconclusive), respectively.
For `O=C(CSc1ccccc1)Nc1ccc(NC(=O)c2ccco2)cc1` the same measures were 14.1 µM (inconclusive) and 20 µM (inconclusive).
`CCOC(=O)c1cnc2c(cnn2C)c1NCCCN(C)C`: the AC50 at Cytochrome P450 1A2 is 22.4 µM (inconclusive).
For `CCN(CC)c1ccc(NC(=O)COc2ccc(-n3cnnn3)cc2)cc1`, in [1], the IC50 is 63 µM (active).
In the case of `O=C(Nc1cccc(F)c1)c1cc(S(=O)(=O)N2CCOCC2)ccc1N1CCCC1`, the EC50 in [2] is > 53 µM (inactive).
On to `Cc1cc(Nc2ccccc2)nc(N)n1`, for which the half-maximal activity concentration (AC50) on Cytochrome P450 1A2 is 8.91 µM (inconclusive).
Regarding `Cn1c(=O)[nH]c(=O)c2c1nc(NCCCO)n2CCCc1ccccc1`, the AC50 on Cytochrome P450 2C9 is 12.6 µM (inconclusive).
For the molecule `Cc1cc(Cl)cc2sc(S)nc12`, the IC50 in assay [1] was 85.4 µM (active).
Consider `Cc1ccccc1OCCC(=O)Nc1cc(S(=O)(=O)N2CCCCC2)ccc1N1CCN(C)CC1`, for which the EC50 in assay [2] is 9.71 µM (active).
Turning to `COc1cc(C(C)n2nnc3ccccc32)ccc1O` (configuration not stated), the IC50 in [1] was 108 µM (active).
Turning to `O=C(O)Cc1cccnc1C(=O)O`, the AC50 on Cytochrome P450 1A2 is 39.8 µM (inconclusive).
As for `O=C(CNC(=O)c1ccco1)N/N=C/c1ccc(O)cc1O`, the IC50 in [1] is 104 µM (active).
Same read-out and setting: the result for `CCOc1cc(/C=N/Nc2ncc(C)c(O)n2)ccc1O` reads 32.1 µM (active).
